For orientation: pEC50 means −log10 of the EC50, conventionally taken in molar units.

pEC50: −log10 of the molar value.

EC50 data for eleven compounds are collected here from patent publication US9499550B2 (BRISTOL-MYERS SQUIBB COMPANY, priority 2012, dated 2016).

The subject of test [1] is HCV genotype 1a (H77 strain) replicon in HUH-7 cells. In words: HCV replicon luciferase reporter assay, genotype 1a. The settings on record: Hepatitis C virus, Huh-7, 72 h, HCV genotype 1a replicon luciferase assay, 3 days incubation, range class, read-out: LE_1a (EC50, range). In kind it is cell-based. The gist of the method: (§1)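 Replicon inhibition for both genotypes was measured as Renilla luciferase signal (EnduRen, 7.5 μM final, 2 h) after 3-day, 37° C exposure of replicon-bearing HUH-7 cells in 4% FCS DMEM, 0.5% DMSO. The 1b construct carries S1179I; the 1a H77 construct carries P1496L and S2204I. Twenty-point, 3-fold dilutions were fitted four-parametrically for EC50, and CC50 was taken from multiplexed Cell Titer-Blue.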

Test [2] deals with HCV genotype 1b (Con1) replicon in HUH-7 cells. In words: HCV replicon luciferase reporter assay, genotype 1b. In kind it is cell-based. The following applies: Hepatitis C virus, Huh-7, 72 h, HCV genotype 1b replicon luciferase assay, 3 days incubation, range class, read-out: LE_1b (EC50, range). Put shortly: as §1
On the technique in general: A replicon is a self-replicating genome or part of one, used to study replication in cells.

In the case of `COc1ccc2c(O[C@@H]3C[C@H]4C(=O)N[C@]5(C(=O)NS(=O)(=O)C6CC6)C[C@H]5/C=C\CC[C@@H](C)C[C@@H](C)[C@H](NC(=O)OCC5(C)CC5)C(=O)N4C3)nc(-c3ccc(OC(C)C)c(F)c3)cc2c1` [Compound 3066, (1-methylcyclopropyl)methyl ((2R,6S,7R,9R,13aS,14aR,16aS,Z)-14a-((cyclopropylsulfonyl)carbamoyl)-2-((3-(3-fluoro-4-isopropoxyphenyl)-6-methoxyisoquinolin-1-yl)oxy)-7,9-dimethyl-5,16-dioxo-1,2,3,5,6,7,8,9,10,11,13a,14,14a,15,16,16a-hexadecahydrocyclopropa[e]pyrrolo[1,2-a][1,4]diazacyclopentadecin-6-yl)carbamate], the pEC50 in test [1] and in test [2] was more than 8.26 each time.

As for `COc1ccc2c(O[C@@H]3C[C@H]4C(=O)N[C@]5(C(=O)NS(=O)(=O)C6(C)CC6)C[C@H]5/C=C\CC[C@H](C)C[C@@H](C)[C@H](NC(=O)OCC5(C)CC5)C(=O)N4C3)nc(-c3ccc(OC(C)C)c(F)c3)cc2c1` [Compound 3067, (1-methylcyclopropyl)methyl ((2R,6S,7R,9S,13aS,14aR,16aS,Z)-2-((3-(3-fluoro-4-isopropoxyphenyl)-6-methoxyisoquinolin-1-yl)oxy)-7,9-dimethyl-14a-(((1-methylcyclopropyl)sulfonyl)carbamoyl)-5,16-dioxo-1,2,3,5,6,7,8,9,10,11,13a,14,14a,15,16,16a-hexadecahydrocyclopropa[e]pyrrolo[1,2-a][1,4]diazacyclopentadecin-6-yl)carbamate], the values for the pEC50 in test [1] and in test [2] were 6.99 to 8.32 and more than 8.26, respectively.

`COc1ccc2c(O[C@@H]3C[C@H]4C(=O)N[C@]5(C(=O)NS(=O)(=O)C6(C)CC6)C[C@H]5/C=C\CC[C@@H](C)C[C@@H](C)[C@H](NC(=O)OCC5(C)CC5)C(=O)N4C3)nc(-c3ccc(OC(C)C)c(F)c3)cc2c1` [Compound 3068, (1-methylcyclopropyl)methyl ((2R,6S,7R,9R,13aS,14aR,16aS,Z)-2-((3-(3-fluoro-4-isopropoxyphenyl)-6-methoxyisoquinolin-1-yl)oxy)-7,9-dimethyl-14a-(((1-methylcyclopropyl)sulfonyl)carbamoyl)-5,16-dioxo-1,2,3,5,6,7,8,9,10,11,13a,14,14a,15,16,16a-hexadecahydrocyclopropa[e]pyrrolo[1,2-a][1,4]diazacyclopentadecin-6-yl)carbamate]: the negative-log EC50 (pEC50) in test [1] and in test [2] was more than 8.26 each time.

Regarding `COc1ccc2c(O[C@@H]3C[C@H]4C(=O)N[C@]5(C(=O)NS(=O)(=O)C6CC6)C[C@H]5/C=C\CC[C@H](C)C[C@@H](C)[C@H](NC(=O)O[C@@H]5C[C@@H]6C[C@@H]6C5)C(=O)N4C3)nc(-c3ccc(OC(C)C)c(F)c3)cc2c1` [Compound 3069, (1R,3r,5S)-bicyclo[3.1.0]hexan-3-yl((2R,6S,7R,9S,13aS,14aR,16aS,Z)-14a-((cyclopropylsulfonyl)carbamoyl)-2-((3-(3-fluoro-4-isopropoxyphenyl)-6-methoxyisoquinolin-1-yl)oxy)-7,9-dimethyl-5,16-dioxo-1,2,3,5,6,7,8,9,10,11,13a,14,14a,15,16,16a-hexadecahydrocyclopropa[e]pyrrolo[1,2-a][1,4]diazacyclopentadecin-6-yl)carbamate], the negative-log EC50 (pEC50) is 6.99 to 8.32 in test [1] and more than 8.26 in test [2].

As to `COc1ccc2c(O[C@@H]3C[C@H]4C(=O)N[C@]5(C(=O)NS(=O)(=O)C6CC6)C[C@H]5/C=C\CC[C@@H](C)C[C@@H](C)[C@H](NC(=O)O[C@@H]5C[C@@H]6C[C@@H]6C5)C(=O)N4C3)nc(-c3ccc(OC(C)C)c(F)c3)cc2c1` [Compound 3070, (1R,3r,5S)-bicyclo[3.1.0]hexan-3-yl((2R,6S,7R,9R,13aS,14aR,16aS,Z)-14a-((cyclopropylsulfonyl)carbamoyl)-2-((3-(3-fluoro-4-isopropoxyphenyl)-6-methoxyisoquinolin-1-yl)oxy)-7,9-dimethyl-5,16-dioxo-1,2,3,5,6,7,8,9,10,11,13a,14,14a,15,16,16a-hexadecahydrocyclopropa[e]pyrrolo[1,2-a][1,4]diazacyclopentadecin-6-yl)carbamate], the pEC50 in test [1] and in test [2] was more than 8.26 throughout.

Turning to `COc1ccc2c(O[C@@H]3C[C@H]4C(=O)N[C@]5(C(=O)NS(=O)(=O)C6(C)CC6)C[C@H]5/C=C\CC[C@H](C)C[C@@H](C)[C@H](NC(=O)O[C@@H]5C[C@@H]6C[C@@H]6C5)C(=O)N4C3)nc(-c3ccc(OC(C)C)c(F)c3)cc2c1` [Compound 3071, (1R,3r,5S)-bicyclo[3.1.0]hexan-3-yl((2R,6S,7R,9S,13aS,14aR,16aS,Z)-2-((3-(3-fluoro-4-isopropoxyphenyl)-6-methoxyisoquinolin-1-yl)oxy)-7,9-dimethyl-14a-(((1-methylcyclopropyl)sulfonyl)carbamoyl)-5,16-dioxo-1,2,3,5,6,7,8,9,10,11,13a,14,14a,15,16,16a-hexadecahydrocyclopropa[e]pyrrolo[1,2-a][1,4]diazacyclopentadecin-6-yl)carbamate], the pEC50 in test [1] is 6.99 to 8.32; in test [2], more than 8.26.

As for `COc1ccc2c(O[C@@H]3C[C@H]4C(=O)N[C@]5(C(=O)NS(=O)(=O)C6(C)CC6)C[C@H]5/C=C\CC[C@@H](C)C[C@@H](C)[C@H](NC(=O)O[C@@H]5C[C@@H]6C[C@@H]6C5)C(=O)N4C3)nc(-c3ccc(OC(C)C)c(F)c3)cc2c1` [Compound 3072, (1R,3r,5S)-bicyclo[3.1.0]hexan-3-yl((2R,6S,7R,9R,13aS,14aR,16aS,Z)-2-((3-(3-fluoro-4-isopropoxyphenyl)-6-methoxyisoquinolin-1-yl)oxy)-7,9-dimethyl-14a-(((1-methylcyclopropyl)sulfonyl)carbamoyl)-5,16-dioxo-1,2,3,5,6,7,8,9,10,11,13a,14,14a,15,16,16a-hexadecahydrocyclopropa[e]pyrrolo[1,2-a][1,4]diazacyclopentadecin-6-yl)carbamate], the pEC50 in test [1] and in test [2] was more than 8.26 each time.

`COc1ccc2c(O[C@@H]3C[C@H]4C(=O)N[C@]5(C(=O)NS(=O)(=O)C6CC6)C[C@H]5/C=C\CC[C@H](C)C[C@@H](C)[C@H](NC(=O)O[C@H](C)C(F)(F)F)C(=O)N4C3)nc(-c3ccc(OC(C)C)c(F)c3)cc2c1` [Compound 3073, (R)-1,1,1-trifluoropropan-2-yl ((2R,6S,7R,9S,13aS,14aR,16aS,Z)-14a-((cyclopropylsulfonyl)carbamoyl)-2-((3-(3-fluoro-4-isopropoxyphenyl)-6-methoxyisoquinolin-1-yl)oxy)-7,9-dimethyl-5,16-dioxo-1,2,3,5,6,7,8,9,10,11,13a,14,14a,15,16,16a-hexadecahydrocyclopropa[e]pyrrolo[1,2-a][1,4]diazacyclopentadecin-6-yl)carbamate]: the pEC50 in test [1] is 6.99 to 8.32; in test [2], more than 8.26.

Consider `COc1ccc2c(O[C@@H]3C[C@H]4C(=O)N[C@]5(C(=O)NS(=O)(=O)C6CC6)C[C@H]5/C=C\CC[C@@H](C)C[C@@H](C)[C@H](NC(=O)O[C@H](C)C(F)(F)F)C(=O)N4C3)nc(-c3ccc(OC(C)C)c(F)c3)cc2c1` [Compound 3074, (R)-1,1,1-trifluoropropan-2-yl ((2R,6S,7R,9R,13aS,14aR,16aS,Z)-14a-((cyclopropylsulfonyl)carbamoyl)-2-((3-(3-fluoro-4-isopropoxyphenyl)-6-methoxyisoquinolin-1-yl)oxy)-7,9-dimethyl-5,16-dioxo-1,2,3,5,6,7,8,9,10,11,13a,14,14a,15,16,16a-hexadecahydrocyclopropa[e]pyrrolo[1,2-a][1,4]diazacyclopentadecin-6-yl)carbamate], for which the pEC50 in test [1] and in test [2] was more than 8.26 throughout.

Consider `COc1ccc2c(O[C@@H]3C[C@H]4C(=O)N[C@]5(C(=O)NS(=O)(=O)C6(C)CC6)C[C@H]5/C=C\CC[C@H](C)C[C@@H](C)[C@H](NC(=O)O[C@H](C)C(F)(F)F)C(=O)N4C3)nc(-c3ccc(OC(C)C)c(F)c3)cc2c1` [Compound 3075, (R)-1,1,1-trifluoropropan-2-yl ((2R,6S,7R,9S,13aS,14aR,16aS,Z)-2-((3-(3-fluoro-4-isopropoxyphenyl)-6-methoxyisoquinolin-1-yl)oxy)-7,9-dimethyl-14a-(((1-methylcyclopropyl)sulfonyl)carbamoyl)-5,16-dioxo-1,2,3,5,6,7,8,9,10,11,13a,14,14a,15,16,16a-hexadecahydrocyclopropa[e]pyrrolo[1,2-a][1,4]diazacyclopentadecin-6-yl)carbamate], for which the pEC50 in test [1] was 6.99 to 8.32; in test [2], more than 8.26.

As for `COc1ccc2c(O[C@@H]3C[C@H]4C(=O)N[C@]5(C(=O)NS(=O)(=O)C6(C)CC6)C[C@H]5/C=C\CC[C@@H](C)C[C@@H](C)[C@H](NC(=O)O[C@H](C)C(F)(F)F)C(=O)N4C3)nc(-c3ccc(OC(C)C)c(F)c3)cc2c1` [Compound 3076, (R)-1,1,1-trifluoropropan-2-yl ((2R,6S,7R,9R,13aS,14aR,16aS,Z)-2-((3-(3-fluoro-4-isopropoxyphenyl)-6-methoxyisoquinolin-1-yl)oxy)-7,9-dimethyl-14a-(((1-methylcyclopropyl)sulfonyl)carbamoyl)-5,16-dioxo-1,2,3,5,6,7,8,9,10,11,13a,14,14a,15,16,16a-hexadecahydrocyclopropa[e]pyrrolo[1,2-a][1,4]diazacyclopentadecin-6-yl)carbamate], the pEC50 in test [1] and in test [2] was more than 8.26 throughout.
